Source: US9833497B2, “Human originated EGF domain proteins and use of the same” (CHENGDU SOURCEBIO LIMITED-LIABILITY COMPANY, priority 2013, dated 2017)

Key:
Format in all cases: cell-based
[1] = system: E. coli BL21; assay: MIC against Gram-negative bacteria: E. coli BL21; conditions: 5×10^5 CFU/mL
Method in brief: (§1)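 Antibacterial activity of purified human EGF domain proteins: two-fold concentration series, triplicate wells, LB broth, 5×10^5 CFU/mL bacteria, 37° C shaking incubation. The lowest concentration without growth defines the MIC.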

[2] = system: Proteus mirabilis; assay: MIC against Gram-negative bacteria: Proteus mirabilis; conditions: 5×10^5 CFU/mL
Method in brief: as §1

[3] = system: Citrobacter diversus; assay: MIC against Gram-negative bacteria: Citrobacter diversus; conditions: 5×10^5 CFU/mL
Method in brief: as §1

[4] = system: Klebsiella pneumonia; assay: MIC against Gram-negative bacteria: Klebsiella pneumonia; conditions: 5×10^5 CFU/mL
Method in brief: as §1

[5] = system: Aeromonas hydrophila; assay: MIC against Gram-negative bacteria: Aeromonas hydrophila; conditions: 5×10^5 CFU/mL
Method in brief: as §1

[6] = system: Moraxella catarrhalis; assay: MIC against Gram-negative bacteria: Moraxella catarrhalis; conditions: 5×10^5 CFU/mL
Method in brief: as §1

[7] = system: Pseudomonas aeruginosa; assay: MIC against Gram-negative bacteria: Pseudomonas aeruginosa; conditions: 5×10^5 CFU/mL
Method in brief: as §1

[8] = system: Proteus vulgaris; assay: MIC against Gram-negative bacteria: Proteus vulgaris; conditions: 5×10^5 CFU/mL
Method in brief: as §1

[9] = system: Enterobacter cloacae; assay: MIC against Gram-negative bacteria: Enterobacter cloacae; conditions: 5×10^5 CFU/mL
Method in brief: as §1

[10] = system: Serratia marcescens; assay: MIC against Gram-negative bacteria: Serratia marcescens; conditions: 5×10^5 CFU/mL
Method in brief: as §1

[11] = system: E. coli DH5α; assay: Antibacterial activity: MIC and growth curve against E. coli DH5α in 96-well plate; conditions: minimal inhibitory concentration against E. coli DH5α; 96-well plate, 5×10^5 CFU/mL, 37° C., judged after 8 h
Method in brief: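 MIC taken as lowest protein level with no bacterial growth, tracked by A600 every 30 min during 37 °C, 175 rpm culture. Two-fold protein series 50-12.5 μg/mL final, triplicate wells, against 5×10^5 CFU/mL of LB-washed mid-log cells.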

[12] = E. coli BL21, 10 h cultivation at 37° C.

PRT788 (WGPHCTSRCQCKNGALCNPITGACHCAAGFRGWRCE; listed as Homo sapiens)
100 µg/mL: MIC (μg/mL) E. coli BL21 [1, 12]
25 µg/mL: MIC (μg/mL) K. pneumonia ([4]; 10 h cultivation at 37° C.) | MIC (μg/mL) A. hydrophila ([5]; 10 h cultivation at 37° C.) | MIC (μg/mL) M. catarrhalis ([6]; 10 h cultivation at 37° C.)
50 µg/mL: MIC (μg/mL) C. diversus ([3]; 10 h cultivation at 37° C.) | MIC (μg/mL) P. aeruginosa ([7]; 10 h cultivation at 37° C.) | MIC (μg/mL) P. vulgaris ([8]; 10 h cultivation at 37° C.) | MIC (μg/mL) S. marcescens ([10]; 10 h cultivation at 37° C.) | MIC [11]
12.5 µg/mL: MIC (μg/mL) P. mirabilis ([2]; 10 h cultivation at 37° C.) | MIC (μg/mL) E. cloacae ([9]; 10 h cultivation at 37° C.)

PRT182 (QQPICLSGCHEQNGYCSKPAECLCRPGWQGRLCN; listed as Homo sapiens)
25 µg/mL: MIC (μg/mL) P. mirabilis ([2]; 10 h cultivation at 37° C.) | MIC (μg/mL) C. diversus ([3]; 10 h cultivation at 37° C.) | MIC (μg/mL) P. aeruginosa ([7]; 10 h cultivation at 37° C.) | MIC (μg/mL) E. cloacae ([9]; 10 h cultivation at 37° C.) | MIC (μg/mL) S. marcescens ([10]; 10 h cultivation at 37° C.)
100 µg/mL: MIC (μg/mL) M. catarrhalis ([6]; 10 h cultivation at 37° C.)
12.5 µg/mL: MIC (μg/mL) E. coli BL21 [1, 12] | MIC (μg/mL) K. pneumonia ([4]; 10 h cultivation at 37° C.) | MIC (μg/mL) A. hydrophila ([5]; 10 h cultivation at 37° C.) | MIC (μg/mL) P. vulgaris ([8]; 10 h cultivation at 37° C.) | MIC [11]

PRT521 (CNCNSFGSKSFDCEESGQCWCQPGVTGKKCDRCAHGYFNFQEGGCTA; listed as Homo sapiens)
25 µg/mL: MIC against E. coli BL21 ([1]; 96-well plate, 37° C., 10 h) | MIC against K. pneumonia ([4]; 96-well plate, 37° C., 10 h) | MIC against A. hydrophila ([5]; 96-well plate, 37° C., 10 h) | MIC against M. catarrhalis ([6]; 96-well plate, 37° C., 10 h) | MIC against P. vulgaris ([8]; 96-well plate, 37° C., 10 h)
50 µg/mL: MIC against P. mirabilis ([2]; 96-well plate, 37° C., 10 h) | MIC against E. cloacae ([9]; 96-well plate, 37° C., 10 h) | MIC [11]
12.5 µg/mL: MIC against C. diversus ([3]; 96-well plate, 37° C., 10 h) | MIC against P. aeruginosa ([7]; 96-well plate, 37° C., 10 h) | MIC against S. marcescens ([10]; 96-well plate, 37° C., 10 h)

PRT766 (GKDQCAEGGHGCQHQCVNAWAMFHCTCNPGYKLAADNKSCL; listed as Homo sapiens)
12.5 µg/mL: MIC (μg/mL) C. diversus ([3]; 10 h cultivation at 37° C.) | MIC (μg/mL) K. pneumonia ([4]; 10 h cultivation at 37° C.) | MIC (μg/mL) S. marcescens ([10]; 10 h cultivation at 37° C.)
50 µg/mL: MIC (μg/mL) E. coli BL21 [1, 12] | MIC (μg/mL) P. mirabilis ([2]; 10 h cultivation at 37° C.) | MIC (μg/mL) E. cloacae ([9]; 10 h cultivation at 37° C.)
25 µg/mL: MIC (μg/mL) A. hydrophila ([5]; 10 h cultivation at 37° C.) | MIC (μg/mL) M. catarrhalis ([6]; 10 h cultivation at 37° C.) | MIC (μg/mL) P. aeruginosa ([7]; 10 h cultivation at 37° C.) | MIC (μg/mL) P. vulgaris ([8]; 10 h cultivation at 37° C.) | MIC [11]

PRT505 (CECHVKGSHSAVCHLETGLCDCKPNVTGQQCDQCLHGYYGLDSGHGCRP; listed as Homo sapiens)
50 µg/mL: MIC against C. diversus ([3]; 96-well plate, 37° C., 10 h) | MIC against P. aeruginosa ([7]; 96-well plate, 37° C., 10 h) | MIC against E. cloacae ([9]; 96-well plate, 37° C., 10 h) | MIC against S. marcescens ([10]; 96-well plate, 37° C., 10 h) | MIC [11]
12.5 µg/mL: MIC against E. coli BL21 ([1]; 96-well plate, 37° C., 10 h) | MIC against P. mirabilis ([2]; 96-well plate, 37° C., 10 h) | MIC against K. pneumonia ([4]; 96-well plate, 37° C., 10 h) | MIC against A. hydrophila ([5]; 96-well plate, 37° C., 10 h)
25 µg/mL: MIC against M. catarrhalis ([6]; 96-well plate, 37° C., 10 h) | MIC against P. vulgaris ([8]; 96-well plate, 37° C., 10 h)

PRT1380 (SQRSCPRGCSQRGRCEGGRCVCDPGYTGDDC; listed as Homo sapiens)
25 µg/mL: MIC [11]
12.5 µg/mL: MIC against C. diversus ([3]; Citrobacter diversus, 10 h cultivation at 37° C.) | MIC against P. aeruginosa ([7]; Pseudomonas aeruginosa, 10 h cultivation at 37° C.) | MIC against E. cloacae ([9]; Enterobacter cloacae, 10 h cultivation at 37° C.)
50 µg/mL: MIC against E. coli BL21 [1, 12] | MIC against P. mirabilis ([2]; Proteus mirabilis, 10 h cultivation at 37° C.) | MIC against K. pneumonia ([4]; Klebsiella pneumonia, 10 h cultivation at 37° C.) | MIC against A. hydrophila ([5]; Aeromonas hydrophila, 10 h cultivation at 37° C.) | MIC against M. catarrhalis ([6]; Moraxella catarrhalis, 10 h cultivation at 37° C.) | MIC against P. vulgaris ([8]; Proteus vulgaris, 10 h cultivation at 37° C.) | MIC against S. marcescens ([10]; Serratia marcescens, 10 h cultivation at 37° C.)
